The values below come from PMC8286840, “Identifying SARS-CoV-2 antiviral compounds by screening for small molecule inhibitors of Nsp3 papain-like protease” (Biochemical Journal, 2021).

The structures appear in SMILES notation. Counter-ions that a name gives are not always drawn. Like-named read-outs stand apart in the source and are kept apart here.

Assay [1] concerns the target T1, SARS-CoV-2 PLpro (nsp3 1564–1878) (Severe acute respiratory syndrome coronavirus 2, UniProt P0DTD1). As to the kind of experiment: biochemical. The note with it: read-out: % of control remaining. On the set-up: FRET-quenched peptide (Pro3) cleavage by PLpro, 10 min pre-incubation, slope over 20 min, normalised to no-compound control.
For assay [2], the target named is T1, SARS-CoV-2 PLpro (nsp3 1564–1878). As to the kind of experiment: biochemical. On the set-up: FRET-quenched peptide (Pro3) cleavage by PLpro, 10 min pre-incubation, slope over 20 min, normalised to no-compound control. The note with it: read-out: % of control remaining. This is another data set of the same source.

For `CO[C@]12C[C@@H](COC(=O)c3cncc(Br)c3)CN(C)[C@@H]1Cc1cn(C)c3cccc2c13` [Nicergoline], the remaining activity at 1.25 µM in assay [1] (Well no.=1731, low concentration screen) turned out to be 99.4%; in assay [1] (Well no.=6958, low concentration screen) it was 102%. Moreover, the remaining activity at 3.75 µM in assay [2] (Well no.=1731, high concentration screen) is 102%; in assay [2] (Well no.=6958, high concentration screen), 109%.
On to `O=C(Nc1ccc([N+](=O)[O-])cc1Cl)c1cc(Cl)ccc1O` [Niclosamide], for which the remaining activity at 1.25 µM in assay [1] (Well no.=1093, low concentration screen) worked out at 99.3%. Further, the remaining activity at 3.75 µM in assay [2] (Well no.=1093, high concentration screen) was determined as 97.3%.
Turning to `O=C(NCCO[N+](=O)[O-])c1cccnc1` [Nicorandil], the remaining activity at 1.25 µM in assay [1] (Well no.=1812, low concentration screen) is 99%. Moreover, the remaining activity at 3.75 µM in assay [2] (Well no.=1812, high concentration screen) was determined as 95.8%.
On to `NC(=O)c1cccnc1` [Nicotinamide (Niacinamide)], for which the remaining activity at 1.25 µM in assay [1] (Well no.=4884, low concentration screen) was determined as 97.9%. Further, in assay [2] (Well no.=4884, high concentration screen), the remaining activity at 3.75 µM was 94.8%.
On to `NC(=O)c1ccc[n+]([O-])c1` [Nicotinamide N-oxide], for which the remaining activity at 1.25 µM was found to be 105% in assay [1] (Well no.=6247, low concentration screen); 106% in assay [1] (Well no.=8269, low concentration screen); 101% in assay [1] (Well no.=8347, low concentration screen). Besides, the remaining activity at 3.75 µM in assay [2] (Well no.=6247, high concentration screen) was determined as 107%; in assay [2] (Well no.=8269, high concentration screen) it was 102%; in assay [2] (Well no.=8347, high concentration screen), 92.3%.
Take `NC(=O)c1cccnc1` [Nicotinamide]: the remaining activity at 1.25 µM in assay [1] (Well no.=6305, low concentration screen) is 102%. The remaining activity at 3.75 µM in assay [2] (Well no.=6305, high concentration screen) is 99.5%.
Take `O=C(O)c1cccnc1` [Nicotinic Acid]: the remaining activity at 1.25 µM in assay [1] (Well no.=8286, low concentration screen) was 95.6%. The remaining activity at 3.75 µM in assay [2] (Well no.=8286, high concentration screen) worked out at 96.4%.
Turning to `O=C(O)CNC(=O)c1cccnc1` [Nicotinuric acid], in assay [1] (Well no.=6537, low concentration screen), the remaining activity at 1.25 µM amounted to 109%. Also, the remaining activity at 3.75 µM in assay [2] (Well no.=6537, high concentration screen) worked out at 105%.
`Cn1c(NCCN(CCO)CCCc2ccc([N+](=O)[O-])cc2)cc(=O)n(C)c1=O` [Nifekalant]: the remaining activity at 1.25 µM in assay [1] (Well no.=1975, low concentration screen) worked out at 105%. The remaining activity at 3.75 µM in assay [2] (Well no.=1975, high concentration screen) worked out at 102%.
Turning to `O=C(O)c1cccnc1Nc1cccc(C(F)(F)F)c1` [Niflumic acid], the remaining activity at 1.25 µM was 99.1% in assay [1] (Well no.=995, low concentration screen) and 102% in assay [1] (Well no.=2011, low concentration screen). Also, the remaining activity at 3.75 µM in assay [2] (Well no.=995, high concentration screen) came out at 103%; in assay [2] (Well no.=2011, high concentration screen), 106%.
As to `CC1CS(=O)(=O)CCN1/N=C/c1ccc([N+](=O)[O-])o1` (stereo not shown) [Nifurtimox], the remaining activity at 1.25 µM in assay [1] (Well no.=5382, low concentration screen) was found to be 98.3%. In addition, in assay [2] (Well no.=5382, high concentration screen), the remaining activity at 3.75 µM turned out to be 99.2%.
Turning to `COC(=O)C1=C(C)NC(C)=C(C(=O)OCCCN2CCC(c3ccccc3)(c3ccccc3)CC2)[C@H]1c1cccc([N+](=O)[O-])c1` [Niguldipine], the remaining activity at 1.25 µM in assay [1] turned out to be 105%. Further, the remaining activity at 3.75 µM in assay [2] was 100%.
For `Cc1cn(-c2cc(NC(=O)c3ccc(C)c(Nc4nccc(-c5cccnc5)n4)c3)cc(C(F)(F)F)c2)cn1` [Nilotinib], in assay [1] (Well no.=2793, low concentration screen), the remaining activity at 1.25 µM amounted to 111%. The remaining activity at 3.75 µM in assay [2] (Well no.=2793, high concentration screen) was found to be 107%.
As to `CC1(C)NC(=O)N(c2ccc([N+](=O)[O-])c(C(F)(F)F)c2)C1=O` [Nilutamide], the remaining activity at 1.25 µM in assay [1] (Well no.=1147, low concentration screen) worked out at 100%. Besides, in assay [2] (Well no.=1147, high concentration screen), the remaining activity at 3.75 µM came to 101%.
Consider `CS(=O)(=O)Nc1ccc([N+](=O)[O-])cc1Oc1ccccc1` [Nimesulide], for which the remaining activity at 1.25 µM in assay [1] (Well no.=1043, low concentration screen) was 93.4%; in assay [1] (Well no.=1574, low concentration screen) it was 95.5%. Besides, the remaining activity at 3.75 µM in assay [2] (Well no.=1043, high concentration screen) amounted to 96.1%; in assay [2] (Well no.=1574, high concentration screen), 94.3%.
Regarding `COCCOC(=O)C1=C(C)NC(C)=C(C(=O)OC(C)C)C1c1cccc([N+](=O)[O-])c1` (stereo not shown) [Nimodipine], the remaining activity at 1.25 µM in assay [1] (Well no.=844, low concentration screen) is 100%; in assay [1] (Well no.=1717, low concentration screen), 104%. For the same compound, the remaining activity at 3.75 µM amounted to 97.1% in assay [2] (Well no.=844, high concentration screen) and 101% in assay [2] (Well no.=1717, high concentration screen).
With `Cc1ncc(CNC(=O)N(CCCl)N=O)c(N)n1` [Nimustine (hydrochloride)], the remaining activity at 1.25 µM in assay [1] (Well no.=6836, low concentration screen) was 95.8%. In addition, in assay [2] (Well no.=6836, high concentration screen), the remaining activity at 3.75 µM came out at 95.5%.
As for `Cc1ncc(CNC(=O)N(CCCl)N=O)c(N)n1` [Nimustine hydrochloride], the remaining activity at 1.25 µM in assay [1] (Well no.=861, low concentration screen) came to 96.9%. In addition, in assay [2] (Well no.=861, high concentration screen), the remaining activity at 3.75 µM was 97.2%.
`COC(=O)C1=C(C)NC(C)=C(C(=O)OCC(C)C)C1c1ccccc1[N+](=O)[O-]` (stereo not shown) [Nisoldipine]: in assay [1] (Well no.=1796, low concentration screen), the remaining activity at 1.25 µM was found to be 100%. For the same compound, the remaining activity at 3.75 µM in assay [2] (Well no.=1796, high concentration screen) worked out at 100%.
In the case of `CNCCC(Oc1ccccc1OC)c1ccccc1` (stereo not shown) [Nisoxetine hydrochloride], in assay [1] (Well no.=892, low concentration screen), the remaining activity at 1.25 µM came out at 100%. The remaining activity at 3.75 µM in assay [2] (Well no.=892, high concentration screen) came to 99.8%.
With `CNCCC(Oc1ccccc1OC)c1ccccc1` (stereo not shown) [Nisoxetine.HCl], in assay [1] (Well no.=1789, low concentration screen), the remaining activity at 1.25 µM amounted to 103%. Besides, the remaining activity at 3.75 µM in assay [2] (Well no.=1789, high concentration screen) came out at 99.5%.
As for `CC(=O)Oc1ccccc1C(=O)Nc1ncc([N+](=O)[O-])s1` [Nitazoxanide], in assay [1] (Well no.=5482, low concentration screen), the remaining activity at 1.25 µM was 101%. In addition, in assay [2] (Well no.=5482, high concentration screen), the remaining activity at 3.75 µM was 101%.
For the compound `O=C1CCCC(=O)C1C(=O)c1ccc(C(F)(F)F)cc1[N+](=O)[O-]` [Nitisinone], the remaining activity at 1.25 µM in assay [1] (Well no.=5887, low concentration screen) came out at 103%. The remaining activity at 3.75 µM in assay [2] (Well no.=5887, high concentration screen) was determined as 103%.
Consider `CCOC(=O)C1=C(C)NC(C)=C(C(=O)OC)C1c1cccc([N+](=O)[O-])c1` (stereo not shown) [Nitrendipine], for which the remaining activity at 1.25 µM was found to be 92.2% in assay [1] (Well no.=796, low concentration screen) and 99.4% in assay [1] (Well no.=1719, low concentration screen). Moreover, the remaining activity at 3.75 µM in assay [2] (Well no.=796, high concentration screen) stood at 94.4%; in assay [2] (Well no.=1719, high concentration screen) it was 103%.
Regarding `CNC(=C[N+](=O)[O-])NCCSCc1csc(CN(C)C)n1` [Nizatidine], the remaining activity at 1.25 µM in assay [1] (Well no.=4628, low concentration screen) was 101%; in assay [1] (Well no.=7378, low concentration screen), 99.2%. In addition, the remaining activity at 3.75 µM in assay [2] (Well no.=4628, high concentration screen) was 99.2%; in assay [2] (Well no.=7378, high concentration screen), 98.9%.
Regarding `COC(=O)Nc1nc2cc(C(=O)c3cccs3)ccc2[nH]1` [Nocodazole], the remaining activity at 1.25 µM in assay [1] (Well no.=824, low concentration screen) amounted to 99.3%; in assay [1] (Well no.=6258, low concentration screen), 96.5%. Moreover, the remaining activity at 3.75 µM in assay [2] (Well no.=824, high concentration screen) is 101%; in assay [2] (Well no.=6258, high concentration screen), 94.1%.
As for `Cc1ccc2nc(N)[nH]c(=O)c2c1Sc1ccncc1` [Nolatrexed dihydrochloride], the remaining activity at 1.25 µM in assay [1] (Well no.=6980, low concentration screen) was 103%. Further, the remaining activity at 3.75 µM in assay [2] (Well no.=6980, high concentration screen) is 100%.
`CN1Cc2c(N)cccc2C(c2ccccc2)C1` (stereo not shown) [Nomifensine (maleate)]: the remaining activity at 1.25 µM in assay [1] (Well no.=8395, low concentration screen) was determined as 97.9%. Besides, the remaining activity at 3.75 µM in assay [2] (Well no.=8395, high concentration screen) amounted to 95.9%.
Consider `CN1Cc2c(N)cccc2C(c2ccccc2)C1` (stereo not shown) [Nomifensine maleate], for which the remaining activity at 1.25 µM in assay [1] (Well no.=1139, low concentration screen) worked out at 94.1%. In assay [2] (Well no.=1139, high concentration screen), the remaining activity at 3.75 µM came to 96.7%.
